In patent publication US7732447B2, “Fused [d]pyridazin-7-ones” (Cephalon, Inc., priority 2006, dated 2010):

Key:
[1] = target: CDK5/GST-p25 (Homo sapiens, UniProt Q00535); experiment: Cyclin-Dependent Kinase 5 inhibition assay (TRF); format: biochemical; conditions: 10 μM ATP; read-out: CDK-5 IC50
Method: Compounds were tested for their ability to inhibit the kinase activity of baculovirus-expressed cyclin-dependent kinase-5 complexed with GST-p25 (CDK5/GST-p25) using a a TRF detection system. Each 96-well Costar high binding plate (Corning Costar #3922, Corning, N.Y.) was coated with 100 μL/well of 50 μg/mL recombinant GST-tagged substrate [GST-retinoblastoma protein (Rb) Lot # 5.1A] in TBS. The CDK5/GST-p25 assay mixture (total volume=100 μL/well) consisting of 20 mM HEPES, pH 7.2, 10 μM ATP, 10 mM MgCl2, 5 mM EGTA, 25 mM β-glycerophosphate, 0.1% BSA, 2.5% DMSO, and various concentrations of test compound were then added to the assay plate. Enzyme (2 ng/mL CDK5/GST-p25 Lot # p25/CD5-3) was added and the reaction was allowed to proceed at 37° C. for 20 minutes. Detection of the phosphorylated product was performed by adding 100 μL/well of phospho-Rb (Ser-780) antibody (Cell Signaling #9307, Beverly, Mass.) diluted 1:10,000 in antibody dilution buffer (0.1% BSA in TBS-T). After 1-hour incubation at room temperature, 100 μL/well of Eu—N1 labelled anti-rabbit antibody diluted 1:50,000 in antibody dilution buffer (PerkinElmer Life Sciences #AD0105, Boston, Mass.) was added. Incubation at room temperature then proceeded for 1 hour, followed by addition of 100 μl enhancement solution (PerkinElmer Life Sciences #1244-105, Boston, Mass.). The plate was gently agitated and after a few minutes, the fluorescence of the resulting solution was measured using the PerkinElmer EnVision 2100 (or 2102) multilabel plate reader.

[2] = target: T1, vascular endothelial growth factor receptor-2 (VEGFR2) cytoplasmic domain (Homo sapiens, UniProt P35968); experiment: Vascular Endothelial Growth Factor Receptor-2 kinase inhibition assay (TRF); format: biochemical; conditions: 300 nM compound; 40 μM ATP; read-out: VEGFR-2 % inhibition @ 300 nM
T1 construct: recombinant baculovirus-expressed vascular endothelial growth factor receptor-2 (VEGFR2) cytoplasmic domain; made in house
T1 sequence (P35968 786-1356 limits assumed, species assumed): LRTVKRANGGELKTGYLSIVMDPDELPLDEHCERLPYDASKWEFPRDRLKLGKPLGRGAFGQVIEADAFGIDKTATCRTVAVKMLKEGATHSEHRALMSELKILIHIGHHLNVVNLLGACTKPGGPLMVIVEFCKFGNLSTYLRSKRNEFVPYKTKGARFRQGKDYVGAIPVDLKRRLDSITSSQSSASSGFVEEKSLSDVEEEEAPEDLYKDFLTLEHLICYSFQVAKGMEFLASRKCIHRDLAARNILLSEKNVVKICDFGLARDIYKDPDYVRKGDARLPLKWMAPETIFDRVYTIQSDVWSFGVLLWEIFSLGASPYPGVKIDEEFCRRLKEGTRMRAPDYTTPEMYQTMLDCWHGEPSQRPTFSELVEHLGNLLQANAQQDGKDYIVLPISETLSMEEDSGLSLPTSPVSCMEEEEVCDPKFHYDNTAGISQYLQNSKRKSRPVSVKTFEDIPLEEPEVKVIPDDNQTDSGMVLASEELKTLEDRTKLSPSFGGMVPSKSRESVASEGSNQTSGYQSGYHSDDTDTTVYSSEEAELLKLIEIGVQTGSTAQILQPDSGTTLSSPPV
Method: Compounds were tested for their ability to inhibit the kinase activity of recombinant baculovirus-expressed vascular endothelial growth factor receptor-2 (VEGFR2) cytoplasmic domain using the time-resolved fluorescence (TRF) detection system. IC50s were conducted in 96-well Costar high binding plates (Corning Costar #3922, Corning, N.Y.). Briefly, each 96-well plate was coated with 100 μL/well of 10 μg/mL recombinant substrate, glutathione S-transferase-phospholipase C-γ fusion protein (GST-PLCγ Lot # 3P5.1A), in Tris-buffered saline (TBS). The VEGFR2 assay mixture (total volume=100 μL/well) consisting of 20 mM HEPES, pH 7.2, 40 μM ATP, 10 mM MnCl2, 0.1% bovine serum albumin (BSA), and test compound (diluted in DMSO; 2.5% DMSO final in assay) was then added to the assay plate. Enzyme (30 ng/mL VEGFR2 Lot # V2g-2.1A) was added and the reaction was allowed to proceed at 37° C. for 15 minutes. Detection of the phosphorylated product was performed by adding 100 μL/well of Eu-N1 labeled PY100 antibody (PerkinElmer Life Sciences #AD0160, Boston, Mass.) diluted 1:5000 in 0.25% BSA in TBS containing 0.05% Tween-20 (TBS-T). Incubation at 37° C. then proceeded for 1 hour, followed by addition of 100 μL enhancement solution (PerkinElmer Life Sciences #1244-105, Boston, Mass.). The plate was gently agitated and after 30 minutes, the fluorescence of the resulting solution was measured using the PerkinElmer EnVision 2100 (or 2102) multilabel plate reader.

[3] = target: T2, MLK1 (GST-MLK1KD) (Homo sapiens, UniProt P80192); experiment: Mixed Lineage Kinase-1 inhibition assay (32P, myelin basic protein); format: biochemical; conditions: 60 μM ATP; for inhibition at 1 µM: 1 uM compound, read-out: MLK-1 % inhibition @ 1 uM; for IC50: read-out: MLK-1 IC50
T2 construct: 1 μg/mL of baculoviral GST-MLK1KD (Lot 23.1A); GST; made in house
T2 sequence (P80192 144-412 limits assumed, species assumed): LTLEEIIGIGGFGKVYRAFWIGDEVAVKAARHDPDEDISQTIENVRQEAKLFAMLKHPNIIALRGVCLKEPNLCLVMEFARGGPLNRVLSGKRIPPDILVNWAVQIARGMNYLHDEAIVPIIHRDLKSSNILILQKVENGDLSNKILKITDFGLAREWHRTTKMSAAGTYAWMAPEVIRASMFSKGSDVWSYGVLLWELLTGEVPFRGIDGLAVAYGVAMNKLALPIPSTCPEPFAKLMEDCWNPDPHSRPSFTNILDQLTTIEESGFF
Method: The activity assay for MLK1 was performed using the 96-well Millipore Multiscreen plate format. Each 50-μL assay mixture contained 50 mM HEPES (pH 7.0), 1 mM EGTA, 10 mM MgCl2, 1 mM DTT, 25 mM β-glycerophosphate, 60 μM ATP, 1 μCi [γ-^32P]ATP, 0.1% BSA, 500 μg/mL myelin basic protein (Upstate #13-104), 2% DMSO, various concentrations of test compound, and 1 μg/mL of baculoviral GST-MLK1KD (Lot 23.1A). Samples were incubated for 15 minutes at 37° C. The reaction was stopped by adding ice-cold 50% trichloroacetic acid (TCA) and the proteins were allowed to precipitate for 30 minutes at 4° C. The plates were then washed with ice-cold 25% TCA. Supermix scintillation cocktail was added, and the plates were allowed to equilibrate for 1-2 hours prior to counting in the Wallac MicroBeta 1450 Plus scintillation counter.

Chain of CDK5/GST-p25 (Q00535 whole entry, species assumed): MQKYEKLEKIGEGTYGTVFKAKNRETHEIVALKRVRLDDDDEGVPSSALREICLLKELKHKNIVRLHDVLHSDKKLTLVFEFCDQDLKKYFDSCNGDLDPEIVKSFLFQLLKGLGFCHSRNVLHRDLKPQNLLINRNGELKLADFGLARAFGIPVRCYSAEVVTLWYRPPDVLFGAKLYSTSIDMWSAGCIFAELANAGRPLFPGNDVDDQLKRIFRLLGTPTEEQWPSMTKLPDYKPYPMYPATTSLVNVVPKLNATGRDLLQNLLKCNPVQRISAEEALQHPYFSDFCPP
Chain of CDK5/GST-p25 (Q15078 99-307 partner limits assumed, species assumed): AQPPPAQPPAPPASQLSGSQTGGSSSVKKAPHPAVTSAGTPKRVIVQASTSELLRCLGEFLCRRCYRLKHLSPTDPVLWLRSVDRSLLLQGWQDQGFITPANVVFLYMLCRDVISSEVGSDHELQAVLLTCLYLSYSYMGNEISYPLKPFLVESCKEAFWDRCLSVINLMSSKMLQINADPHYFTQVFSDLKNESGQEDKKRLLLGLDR

| SMILES | IC50 [1] [nM] | melting point [°C] | inhibition at 0.3 µM [2] [%] | inhibition at 1 µM [3] [%] | IC50 [3] [nM] | inhibition at 0.3 µM ([3]; 300 nM compound, read-out: MLK-1 % inhibition (@300 nM)) [%] |
| --- | --- | --- | --- | --- | --- | --- |
| O=c1[nH]nc(-c2ccc(O)cc2)c2[nH]c3ccccc3c12 [Example 4s, 4-(4-Hydroxy-phenyl)-2,5-dihydro-pyridazino[4,5-b]indol-1-one] | 657 | > 300 |  |  |  |  |
| Cn1c2ccccc2c2c(=O)[nH]nc(-c3cc4ccccc4s3)c21 [Example 11b, 4-Benzo[b]thiophen-2-yl-5-methyl-2,5-dihydro-pyridazino[4,5-b]indol-1-one] |  |  | 0 | 0 |  |  |
| O=c1[nH]nc(-c2ccncc2)c2[nH]c3ccccc3c12 [Example 4d, 4-Pyridin-4-yl-2,5-dihydro-pyridazino[4,5-b]indol-1-one] | 3820 |  | 18 | 0 |  |  |
| Cn1ccnc1-c1n[nH]c(=O)c2c1[nH]c1ccccc12 [Example 4g, 4-(1-Methyl-1H-imidazol-2-yl)-2,5-dihydro-pyridazino[4,5-b]indol-1-one] |  |  | 0 | 2 |  |  |
| O=c1[nH]nc(-c2cc3ccccc3o2)c2[nH]c3cccc(OCc4ccccc4)c3c12 [Example 4n, 4-Benzofuran-2-yl-9-benzyloxy-2,5-dihydro-pyridazino[4,5-b]indol-1-one] |  |  | 2 | 44 |  |  |
| COc1ccc(-c2n[nH]c(=O)c3c2[nH]c2ccccc23)cc1 [Example 4r, 4-(4-Methoxy-phenyl)-2,5-dihydro-pyridazino[4,5-b]indol-1-one] | > 1000 | > 300 |  |  |  |  |
| O=c1[nH]nc(-c2ccncc2)c2[nH]c3ccc([N+](=O)[O-])cc3c12 [Example 4v, 8-Nitro-4-pyridin-4-yl-2,5-dihydro-pyridazino[4,5-b]indol-1-one] | > 3000 |  |  |  |  |  |
| O=c1[nH]nc(-c2cccnc2)c2[nH]c3ccccc3c12 [Example 4c, 4-Pyridin-3-yl-2,5-dihydro-pyridazino[4,5-b]indol-1-one] |  |  | 14 | 0 |  |  |
| O=c1[nH]nc(-c2ccc(-c3ccccc3)cc2)c2[nH]c3ccccc3c12 [Example 4i, 4-Biphenyl-4-yl-2,5-dihydro-pyridazino[4,5-b]indol-1-one] |  |  | 16 | 14 |  |  |
| O=c1[nH]nc(-c2ccc(O)cc2)c2c1[nH]c1ccccc12 [Example 14e, 1-(4-Hydroxy-phenyl)-3,5-dihydro-pyridazino[4,5-b]indol-4-one] | > 3000 |  |  |  |  |  |
| O=c1[nH]nc(-c2cc3ccccc3s2)c2c1[nH]c1ccccc12 [Example 14b, 1-Benzo[b]thiophen-2-yl-3,5-dihydro-pyridazino[4,5-b]indol-4-one] |  |  | 3 | 0 |  |  |
| O=c1[nH]nc(-c2nccs2)c2[nH]c3ccccc3c12 [Example 4f, 4-Thiazo-2-yl-2,5-dihydro-pyridazino[4,5-b]indol-1-one] |  |  | 0 | 5 |  |  |
| O=c1[nH]nc(-c2cc3ccccc3o2)c2[nH]c3cc4c(cc3c12)OCO4 [Example 4m, 8-Benzofuran-2-yl-6,9-dihydro-1,3-dioxa-6,7,9-triaza-cyclopenta[b]fluoren-5-one] |  |  | 0 | 46 |  |  |
| Cc1ccc(-c2n[nH]c(=O)c3c2[nH]c2ccccc23)o1 [Example 4e, 4-(5-Methyl-furan-2-yl)-2,5-dihydro-pyridazino[4,5-b]indol-1-one] |  |  | 4 | 10 |  |  |
| COc1ccc2[nH]c3c(-c4cc5ccccc5o4)n[nH]c(=O)c3c2c1 [Example 4l, 4-Benzofuran-2-yl-8-methoxy-2,5-dihydro-pyridazino[4,5-b]indol-1-one] |  |  | 9 | 53 | 1020 |  |
| O=c1[nH]nc(-c2cnc3ccccc3n2)c2[nH]c3ccccc3c12 [Example 4j, 4-Quinoxalin-2-yl-2,5-dihydro-pyridazino[4,5-b]indol-1-one] |  |  | 0 | 0 |  |  |
| O=c1[nH]nc(-c2cc3ccccc3o2)c2[nH]c3cc(OCc4ccccc4)ccc3c12 [Example 4p, 4-Benzofuran-2-yl-7-benzyloxy-2,5-dihydro-pyridazino[4,5-b]indol-1-one] |  |  | 14 | 0 |  |  |
| O=c1[nH]nc(-c2ccc3ccccc3c2)c2c1[nH]c1ccccc12 [Example 14c, 1-Naphthalen-2-yl-3,5-dihydro-pyridazino[4,5-b]indol-4-one] |  |  | 1 | 12 |  |  |
| O=c1[nH]nc(-c2cc3ccccc3o2)c2[nH]c3ccccc3c12 [Example 4k, 4-Benzofuran-2-yl-2,5-dihydro-pyridazino[4,5-b]indol-1-one] |  |  | 0 | 41 | 2660 |  |
| Cn1c(-c2n[nH]c(=O)c3c2[nH]c2ccccc23)nc2ccccc21 [Example 4h, 4-(1-Methyl-1H-benzoimidazol-2-yl)-2,5-dihydro-pyridazino[4,5-b]indol-1-one] |  |  | 0 | 0 |  |  |
| COc1ccc2c(c1)[nH]c1c(-c3ccc(OCc4ccccc4)cc3)n[nH]c(=O)c12 [Example 4t, 4-(4-Benzyloxy-phenyl)-7-methoxy-2,5-dihydro-pyridazino[4,5-b]indol-1-one] | > 1000 | > 300 |  |  |  |  |
| O=c1[nH]nc(-c2cc3ccccc3o2)c2[nH]c3ccc(O)cc3c12 [Example 4q, 4-Benzofuran-2-yl-8-hydroxy-2,5-dihydro-pyridazino[4,5-b]indol-1-one] |  |  | 21 |  | 138 | 67 |
| Cn1c2ccccc2c2c(=O)[nH]nc(-c3cc4ccccc4o3)c21 [Example 11a, 4-Benzofuran-2-yl-5-methyl-2,5-dihydro-pyridazino[4,5-b]indol-1-one] |  |  | 0 | 19 |  |  |
| COc1ccc2c(c1)[nH]c1c(-c3ccc(O)cc3)n[nH]c(=O)c12 [Example 4u, 4-(4-Hydroxy-phenyl)-7-methoxy-2,5-dihydro-pyridazino[4,5-b]indol-1-one] | 756 | > 300 |  |  |  |  |
| O=c1[nH]nc(-c2ccccn2)c2[nH]c3ccccc3c12 [Example 4b, 4-Pyridin-2-yl-2,5-dihydro-pyridazino[4,5-b]indol-1-one] |  |  | 7 | 0 |  |  |
| Cn1c2ccccc2c2c(=O)[nH]nc(-c3ccc4ccccc4c3)c21 [Example 11c, 5-Methyl-4-naphthalen-2-yl-2,5-dihydro-pyridazino[4,5-b]indol-1-one] |  |  | 3 | 0 |  |  |
| O=c1[nH]nc(-c2cc3ccccc3o2)c2[nH]c3ccc(OCc4ccccc4)cc3c12 [Example 4o, 4-Benzofuran-2-yl-8-benzyloxy-2,5-dihydro-pyridazino[4,5-b]indol-1-one] |  |  | 10 | 73 | 381 |  |
